Data: ChEMBL document CHEMBL5154820 (Eur J Med Chem, 2022)

Tests used:
HeLa [1] = assay: Induction of cell cycle arrest in human HeLa cells assessed as >4N cells at 1.5 nM measured after 24 hrs by propidium iodide staining based flow cytometric analysis analysis relative to control; type: functional
HeLa [2] = assay: Induction of cell cycle arrest in human HeLa cells assessed as >4N cells at 3 nM measured after 24 hrs by propidium iodide staining based flow cytometric analysis analysis relative to control; type: functional
HeLa [3] = assay: Inhibition of colony formation in human HeLa cells at 6 nM and treated for every 48 hrs with fresh medium measured after 14 days by crystal violet staining method; type: functional; set-up: scale not given: the % may be the effect or the level left; details: time 14 day
HeLa [4] = assay: Induction of cell cycle arrest in human HeLa cells assessed as S-phase at 6 nM measured after 24 hrs by propidium iodide staining based flow cytometric analysis analysis ( Rvb = 23.4%); type: functional
HeLa [5] = assay: Induction of apoptosis in human HeLa cells assessed as early apoptotic cells at 3 nM measured after 24 hrs by Annexin V-FITC/7-AAD staining based flow cytometric analysis (reference value: 18.8%); type: functional
HeLa [6] = assay: Induction of cell cycle arrest in human HeLa cells assessed as S-phase at 1.5 nM measured after 24 hrs by propidium iodide staining based flow cytometric analysis analysis ( Rvb = 23.4%); type: functional
HeLa [7] = assay: Induction of apoptosis in human HeLa cells assessed as viable cells at 1.5 nM measured after 24 hrs by Annexin V-FITC/7-AAD staining based flow cytometric analysis (reference value: 75.5%); type: functional; details: read-out: Activity
HeLa [8] = assay: Induction of apoptosis in human HeLa cells assessed as necrotic cells at 6 nM measured after 24 hrs by Annexin V-FITC/7-AAD staining based flow cytometric analysis (reference value: 0.45%); type: functional
HeLa [9] = assay: Antimigratory activity against human HeLa cells at 3 nM measured after 24 hrs by scratch wound healing based fluorescence inverted microscopic analysis; type: functional
HeLa [10] = assay: Induction of cell cycle arrest in human HeLa cells assessed as >4N cells at 6 nM measured after 24 hrs by propidium iodide staining based flow cytometric analysis analysis relative to control; type: functional
HeLa [11] = assay: Induction of cell cycle arrest in human HeLa cells assessed as accumulation of cells at G2/M phase at 1.5 nM after 24 hrs by propidium iodide staining based flow cytometric analysis (reference value: 17.1%); type: functional
HeLa [12] = assay: Induction of apoptosis in human HeLa cells assessed as late apoptotic cells at 3 nM measured after 24 hrs by Annexin V-FITC/7-AAD staining based flow cytometric analysis (reference value: 5.22%); type: functional
HeLa [13] = assay: Induction of cell cycle arrest in human HeLa cells assessed as accumulation of cells at G2/M phase at 0.1 uM after 24 hrs by propidium iodide staining based flow cytometric analysis (reference value: 20.3%); type: functional
HeLa [14] = assay: Induction of cell cycle arrest in human HeLa cells assessed as S-phase at 0.4 uM measured after 24 hrs by propidium iodide staining based flow cytometric analysis analysis ( Rvb = 15.5%); type: functional
HeLa [15] = assay: Antitumor activity against human HeLa cells xenografted in BABL/c mouse assessed as tumor growth inhibition at 30 mg/kg, ip administered daily for 21 days followed by addition of 3 mg/kg DDP for every 2 days relative to control; type: functional; details: 504 h, time 21 day, read-out: TGI
HeLa [16] = assay: Induction of cell cycle arrest in human HeLa cells assessed as 4N cells at 0.2 uM measured after 24 hrs by propidium iodide staining based flow cytometric analysis analysis ( Rvb = 20.3%); type: functional
[17] = Acute toxicity in ICR female mouse assessed as body weight gain at 100 to 1000 mg/kg, ip measured daily for 14 days; type: organism-based; details: in vivo, 336 h, dose 100-1000 mg/kg, time 14 day
Tubulin (Homo sapiens) = Tubulin (Homo sapiens) (UniProt P68371+Q9H4B7+P0DPH7+P68366+Q13509+Q71U36+P04350+Q3ZCM7+P07437+P68363+Q9BQE3+Q6PEY2+Q13885+Q9BVA1+Q9BUF5); assay: Induction of microtubule disruption in human HeLa cells assessed as loss of cellular structure at 0.1 to 0.2 uM measured after 24 hrs by DAPI staining based laser scanning confocal microscopic analysis; type: cell-based; details: dose 0.1-0.2 µM, DDE = dose-dependent effect
HeLa [18] = assay: Inhibition of colony formation in human HeLa cells at 20 nM and treated for every 48 hrs with fresh medium measured after 14 days by crystal violet staining method ( Rvb = 67.3%); type: functional; set-up: scale not given: the % may be the effect or the level left; details: time 14 day
HeLa [19] = assay: Induction of apoptosis in human HeLa cells assessed as early apoptotic cells at 0.2 uM measured after 24 hrs by Annexin V-FITC/7-AAD staining based flow cytometric analysis (reference value: 20.8%); type: functional
HeLa [20] = assay: Induction of apoptosis in human HeLa cells assessed as late apoptotic cells at 0.2 uM measured after 24 hrs by Annexin V-FITC/7-AAD staining based flow cytometric analysis (reference value: 8.51%); type: functional
[21] = AUC(0 to infinity) in C57 nude mouse plasma at 30 mg/kg, ip measured at 0.083 to 24 hrs by LC/MS/MS analysis; type: ADME, organism-based; set-up: time lower 0.083 hrs, dose 30 mg/kg, time upper 24 hrs, route ip
[22] = target: Voltage-gated inwardly rectifying potassium channel KCNH2 (Homo sapiens, UniProt Q12809); assay: Inhibition of human ERG expressed in CHO cells with holding potential of -80 mV by whole cell patch clamp assay; type: toxicity, cell-based
[23] = target: Tubulin beta (Homo sapiens) (UniProt P68371+Q9H4B7+Q13509+P04350+Q3ZCM7+P07437+Q13885+Q9BVA1+Q9BUF5+A6NNZ2); assay: Binding affinity to beta-tubulin colchicine binding site in human HeLa cells assessed as decrease of adduct formation by measuring gray value measured at 1 uM incubated for 2 hrs followed by addition of EBI measured after 1.5 hrs by EBI competition based Western blotting analysis; type: cell-based; details: time 3.5 hrs
[24] = Toxicity in BABL/c mouse xenografted with human HeLa cells assessed as body weight gain at 30 mg/kg, ip administered daily for 21 days followed by addition of 3 mg/kg DDP for every 2 days and measured every 3 days; type: organism-based; details: in vivo, 504 h, time 21 day
Tubulin = Tubulin (Sus scrofa, UniProt P02554+P02550); assay: Inhibition of pig brain tubulin polymerization by spectrophotometeric analysis; set-up: species or system Sus scrofa domesticus
[25] = Cmax in C57 nude mouse at 30 mg/kg, ip measured at 0.083 to 24 hrs by LC/MS/MS analysis; type: ADME, organism-based; set-up: dose 30 mg/kg, time 0.083-24 hrs, route ip; details: in vivo
HeLa [26] = assay: Antimigratory activity against human HeLa cells at 0.4 uM measured after 24 hrs by scratch wound healing based fluorescence inverted microscopic analysis; type: functional
[27] = Nephrotoxicity in BABL/c mouse assessed as increased creatinine level at 30 mg/kg, ip administered daily for 21 days relative to vehicle; type: toxicity, organism-based; details: in vivo, 504 h, time 21 day
[28] = Toxicity against BABL/c mouse assessed as glomerular crescent hyperplasia in kidney at 60 mg/kg, ip administered daily for 21 days by H and E staining method; type: organism-based; details: in vivo, 504 h, time 21 day
HeLa [29] = assay: Induction of cell cycle arrest in human HeLa cells assessed as S-phase at 0.1 uM measured after 24 hrs by propidium iodide staining based flow cytometric analysis analysis ( Rvb = 15.5%); type: functional
HeLa [30] = assay: Inhibition of colony formation in human HeLa cells at 50 nM and treated for every 48 hrs with fresh medium measured after 14 days by crystal violet staining method ( Rvb = 67.3%); type: functional; set-up: scale not given: the % may be the effect or the level left; details: time 14 day

Voltage-gated inwardly rectifying potassium channel KCNH2, sequence (Q12809 whole entry): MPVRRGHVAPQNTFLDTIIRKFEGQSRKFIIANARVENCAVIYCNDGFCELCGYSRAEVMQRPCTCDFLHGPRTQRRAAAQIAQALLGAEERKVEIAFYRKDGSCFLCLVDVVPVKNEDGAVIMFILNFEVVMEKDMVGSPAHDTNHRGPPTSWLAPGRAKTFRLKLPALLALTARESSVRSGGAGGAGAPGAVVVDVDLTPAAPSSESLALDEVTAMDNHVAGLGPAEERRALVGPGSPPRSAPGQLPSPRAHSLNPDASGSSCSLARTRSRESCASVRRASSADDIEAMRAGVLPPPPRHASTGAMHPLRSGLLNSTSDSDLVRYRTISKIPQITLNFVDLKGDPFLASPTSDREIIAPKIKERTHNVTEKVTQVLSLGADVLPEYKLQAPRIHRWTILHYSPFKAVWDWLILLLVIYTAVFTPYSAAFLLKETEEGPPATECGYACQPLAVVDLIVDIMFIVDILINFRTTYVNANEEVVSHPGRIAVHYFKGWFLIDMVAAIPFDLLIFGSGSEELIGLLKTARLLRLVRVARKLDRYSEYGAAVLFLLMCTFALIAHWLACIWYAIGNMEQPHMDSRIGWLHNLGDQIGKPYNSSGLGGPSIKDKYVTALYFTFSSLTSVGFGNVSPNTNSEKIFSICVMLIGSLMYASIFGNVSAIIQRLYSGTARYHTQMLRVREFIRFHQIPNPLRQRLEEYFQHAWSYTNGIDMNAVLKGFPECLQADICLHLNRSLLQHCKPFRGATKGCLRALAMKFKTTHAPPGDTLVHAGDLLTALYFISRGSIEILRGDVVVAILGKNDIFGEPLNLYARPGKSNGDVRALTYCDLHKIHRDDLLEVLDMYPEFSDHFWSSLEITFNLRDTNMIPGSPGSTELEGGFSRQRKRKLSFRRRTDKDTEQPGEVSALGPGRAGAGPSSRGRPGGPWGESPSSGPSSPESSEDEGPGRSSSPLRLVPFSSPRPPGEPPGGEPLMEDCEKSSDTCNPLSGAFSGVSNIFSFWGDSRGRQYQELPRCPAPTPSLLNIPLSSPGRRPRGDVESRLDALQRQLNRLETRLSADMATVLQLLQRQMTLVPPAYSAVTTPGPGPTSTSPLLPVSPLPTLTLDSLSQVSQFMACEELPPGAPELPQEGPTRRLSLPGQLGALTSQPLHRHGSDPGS

For COc1ccc(/C=C\c2cc(OC)c(OC)c(OC)c2)cc1O [COMBRETASTATIN A4], the Activity (HeLa [1]) was 17.9%, the Activity (HeLa [2]) was 17% and the Activity (HeLa [3]) was 100%. For the same compound, the Activity (HeLa [4]) was 15.9%, the Activity (HeLa [5]) was 43.8% and the Activity (HeLa [6]) was 12%. It also gave a viability at 0.0015 µM (HeLa [7]) of 68.9%, an Activity (HeLa [8]) of 0.62% and an Activity (HeLa [9]) of 57%. It also gave an Activity (HeLa [10]) of 6.35%, an Activity (HeLa [11]) of 22.5% and an Activity (HeLa [12]) of 10.8%.
In the case of CCOc1ccc(-c2cncnc2-c2cc(OC)c(OC)c(OC)c2)cc1Cl, the Activity (HeLa [13]) is reported as 24.7%, the Activity (HeLa [14]) is reported as 11.4% and the inhibition in vivo at 30 mg/kg (HeLa [15]) is reported as 73%. The Activity (HeLa [16]) was 47.6%, the Activity [17] was 3.88 g and the Activity (Tubulin (Homo sapiens)) was “Dde”. For the same compound, the Activity (HeLa [18]) was 51.5%, the Activity (HeLa [19]) was 66.4% and the Activity (HeLa [20]) was 6.7%. The AUC(0-inf) [21] was 5940 ng·h/mL, the IC50 [22] was 22.3 µM and the Activity [23] was 0.53. The Activity [24] was “Non-Toxic”, the IC50 (Tubulin) was 4.6 µM and the Cmax [25] was 6220 ng/mL. The Activity (HeLa [26]) was 50%, the Activity [27] was 31% and the Activity [28] was “Toxic”. It also gave an Activity (HeLa [29]) of 13% and an Activity (HeLa [30]) of 36.8%.
